Assay results from patent US7125990B2, “Imidazolyl derivatives as corticotropin releasing factor inhibitors” (Bristol-Myers Squibb COmpany, priority 2001, dated 2006).
pKi: −log10 of the molar value.

Molecular target: T1, CRF1 receptors (Homo sapiens, UniProt P34998)
T1 construct: endogenous in cells; host or cells: IMR-32 cells, transformed with 2.5 µM 5'-bromo-2'-deoxyuridine for 10 days; membrane preparation
T1 sequence (P34998 24-415): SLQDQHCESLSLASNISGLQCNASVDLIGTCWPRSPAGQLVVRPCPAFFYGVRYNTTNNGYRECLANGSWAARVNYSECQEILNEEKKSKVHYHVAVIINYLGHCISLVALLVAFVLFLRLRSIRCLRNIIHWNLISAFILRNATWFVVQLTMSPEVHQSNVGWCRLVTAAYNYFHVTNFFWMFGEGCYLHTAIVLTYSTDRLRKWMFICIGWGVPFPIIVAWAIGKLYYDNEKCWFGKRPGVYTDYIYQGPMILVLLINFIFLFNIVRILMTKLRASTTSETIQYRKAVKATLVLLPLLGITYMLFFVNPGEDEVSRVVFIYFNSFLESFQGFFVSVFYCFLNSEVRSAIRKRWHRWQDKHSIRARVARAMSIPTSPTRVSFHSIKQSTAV
Experiment: CRF1 receptor radioligand binding assay ([125I]-oCRF competition, IMR-32 cell membranes)
Conditions: IMR-32 cell membranes, [125I]-oCRF 100 pM; read-out: Ki (CRF-1R)
Summary of the method: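 Buffer: Tris pH 7.2 with MgCl2, BSA, Triton X-100, aprotinin, leupeptin; reaction stopped with ice-cold wash and filtered. Nonspecific binding set with 10 μM oCRF.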

| SMILES | pKi |
| --- | --- |
| CCCN(CCC1CC1)Cc1c(C(F)(F)F)nc2n(-c3c(C)cc(C)cc3C)c3ccccc3n12 [Example 164, (2-Cyclopropyl-ethyl)-propyl-[2-trifluoromethyl-8-(2,4,6-trimethyl-phenyl)-8H-1,3a,8-triaza-cyclopenta[α]inden-3-ylmethyl]-amine] | > 6.00 |
| Cc1cc(C)c(-n2c3ccccc3n3c(CN(CCC4CC4)CCC(F)(F)F)c(C(F)(F)F)nc23)c(C)c1 [Example 166, (2-Cyclopropyl-ethyl)-[2-trifluoromethyl-8-(2,4,6-trimethyl-phenyl)-8H-1,3a,8-triaza-cyclopenta[α]inden-3-ylmethyl]-(3,3,3-trifluoro-propyl)-amine] | > 6.00 |
| CCN(Cc1ccccc1)Cc1c(C(F)(F)F)nc2n(-c3c(C)cc(C)cc3C)c3ccccc3n12 [Example 173, Benzyl-ethyl-[2-trifluoromethyl-8-(2,4,6-trimethyl-phenyl)-8H-1,3a,8-triaza-cyclopenta[α]inden-3-ylmethyl]-amine] | > 5.00 |
| CCN(CCc1ccccc1)Cc1c(C(F)(F)F)nc2n(-c3c(C)cc(C)cc3C)c3ccccc3n12 [Example 174, Ethyl-phenethyl-[2-trifluoromethyl-8-(2,4,6-trimethyl-phenyl)-8H-1,3a,8-triaza-cyclopenta[α]inden-3-ylmethyl]-amine] | > 5.00 |
| CCCCN(Cc1ccccc1)Cc1c(C(F)(F)F)nc2n(-c3c(C)cc(C)cc3C)c3ccccc3n12 [Example 176, Benzyl-butyl-[2-trifluoromethyl-8-(2,4,6-trimethyl-phenyl)-8H-1,3a,8-triaza-cyclopenta[α]inden-3-ylmethyl]-amine] | > 5.00 |
| FC(F)(F)c1nc2n(-c3ccc(Cl)cc3Cl)c3ccccc3n2c1CN(CC1CC1)CC1CC1 [Example 177, Bis-cyclopropylmethyl-[8-(2,4-dichloro-phenyl)-2-trifluoromethyl-8H-1,3a,8-triaza-cyclopenta[α]inden-3-ylmethyl]-amine] | > 6.00 |
| CCCN(Cc1c(C(F)(F)F)nc2n(-c3ccc(Cl)cc3Cl)c3ccccc3n12)CC1CC1 [Example 178, Cyclopropylmethyl-[8-(2,4-dichloro-phenyl)-2-trifluoromethyl-8H-1,3a,8-triaza-cyclopenta[α]inden-3-ylmethyl]-propyl-amine] | > 6.00 |
| FC(F)(F)CN(Cc1c(C(F)(F)F)nc2n(-c3ccc(Cl)cc3Cl)c3ccccc3n12)CC1CC1 [Example 179, Cyclopropylmethyl-[8-(2,4-dichloro-phenyl)-2-trifluoromethyl-8H-1,3a,8-triaza-cyclopenta[α]inden-3-ylmethyl]-(2,2,2-trifluoro-ethyl)-amine] | > 6.00 |
| FC(F)(F)CCN(Cc1c(C(F)(F)F)nc2n(-c3ccc(Cl)cc3Cl)c3ccccc3n12)CC1CC1 [Example 180, Cyclopropylmethyl-[8-(2,4-dichloro-phenyl)-2-trifluoromethyl-8H-1,3a,8-triaza-cyclopenta[α]inden-3-ylmethyl]-(3,3,3-trifluoro-propyl)-amine] | > 5.00 |
| CCN(Cc1c(C(F)(F)F)nc2n(-c3ccc(Cl)cc3Cl)c3ccccc3n12)CC1CC1 [Example 181, Cyclopropylmethyl-[8-(2,4-dichloro-phenyl)-2-trifluoromethyl-8H-1,3a,8-triaza-cyclopenta[α]inden-3-ylmethyl]-ethyl-amine] | > 5.00 |
| CCCN(CCc1ccccc1)Cc1c(C(F)(F)F)nc2n(-c3ccc(Cl)cc3Cl)c3ccccc3n12 [Example 182, [8-(2,4-Dichloro-phenyl)-2-trifluoromethyl-8H-1,3a,8-triaza-cyclopenta[α]inden-3-ylmethyl]-phenethyl-propyl-amine] | > 5.00 |
| FC(F)(F)c1nc2n(-c3ccc(Cl)cc3Cl)c3ccccc3n2c1CN(CC1CC1)CC(F)(F)C(F)(F)F [Example 183, Cyclopropylmethyl-[8-(2,4-dichloro-phenyl)-2-trifluoromethyl-8H-1,3a,8-triaza-cyclopenta[α]inden-3-ylmethyl]-(2,2,3,3,3-pentafluoro-propyl)-amine] | > 5.00 |
| C=CCN(CC=C)Cc1c(C(F)(F)F)nc2n(-c3ccc(Cl)cc3Cl)c3ccccc3n12 [Example 184, Diallyl-[8-(2,4-dichloro-phenyl)-2-trifluoromethyl-8H-1,3a,8-triaza-cyclopenta[α]inden-3-ylmethyl]-amine] | > 5.00 |
| CCCN(Cc1c(C(F)(F)F)nc2n(-c3ccc(Cl)cc3Cl)c3ccccc3n12)CC1CCC1 [Example 186, Cyclobutylmethyl-[8-(2,4-dichloro-phenyl)-2-trifluoromethyl-8H-1,3a,8-triaza-cyclopenta[α]inden-3-ylmethyl]-propyl-amine] | > 5.00 |
| CC(C)c1ccc(-n2c3ccccc3n3c(CN(CC4CC4)CC4CC4)c(C(F)(F)F)nc23)c(Br)c1 [Example 187, [8-(2-Bromo-4-isopropyl-phenyl)-2-trifluoromethyl-8H-1,3a,8-triaza-cyclopenta[α]inden-3-ylmethyl]-bis-cyclopropylmethyl-amine] | > 7.00 |
| CC(C)c1ccc(-n2c3ccccc3n3c(CN(CC4CC4)CC(F)(F)F)c(C(F)(F)F)nc23)c(Br)c1 [Example 188, [8-(2-Bromo-4-isopropyl-phenyl)-2-trifluoromethyl-8H-1,3a,8-triaza-cyclopenta[α]inden-3-ylmethyl]-cyclopropylmethyl-(2,2,2-trifluoro-ethyl)-amine] | > 7.00 |

Other lines, results leading:

| pKi | SMILES |
| --- | --- |
| > 7.00 | CCCN(Cc1c(C(F)(F)F)nc2n(-c3c(C)cc(C)cc3C)c3ccccc3n12)CC(F)(F)F [Example 159, Propyl-(2,2,2-trifluoro-ethyl)-[2-trifluoromethyl-8-(2,4,6-trimethyl-phenyl)-8H-1,3a,8-triaza-cyclopenta[α]inden-3-ylmethyl]-amine] |
| > 6.00 | C=CCN(CC=C)Cc1c(C(F)(F)F)nc2n(-c3c(C)cc(C)cc3C)c3ccccc3n12 [Example 160, Diallyl-[2-trifluoromethyl-8-(2,4,6-trimethyl-phenyl)-8H-1,3a,8-triaza-cyclopenta[α]inden-3-ylmethyl]-amine] |
| > 6.00 | CCCN(CCc1ccccc1)Cc1c(C(F)(F)F)nc2n(-c3c(C)cc(C)cc3C)c3ccccc3n12 [Example 161, Phenethyl-propyl-[2-trifluoromethyl-8-(2,4,6-trimethyl-phenyl)-8H-1,3a,8-triaza-cyclopenta[α]inden-3-ylmethyl]-amine] |
| > 6.00 | CCN(CCc1ccccc1)Cc1c(C(F)(F)F)nc2n(-c3c(C)cc(C)cc3C)c3ccccc3n12 [Example 163, Ethyl-phenethyl-[2-trifluoromethyl-8-(2,4,6-trimethyl-phenyl)-8H-1,3a,8-triaza-cyclopenta[α]inden-3-ylmethyl]-amine] |
| > 6.00 | Cc1cc(C)c(-n2c3ccccc3n3c(CN(C)Cc4ccccc4)c(C(F)(F)F)nc23)c(C)c1 [Example 167, Benzyl-methyl-[2-trifluoromethyl-8-(2,4,6-trimethyl-phenyl)-8H-1,3a,8-triaza-cyclopenta[α]inden-3-ylmethyl]-amine] |
| > 6.00 | Cc1cc(C)c(-n2c3ccccc3n3c(CN(CCC4CC4)CC(F)(F)F)c(C(F)(F)F)nc23)c(C)c1 [Example 169, (2-Cyclopropyl-ethyl)-(2,2,2-trifluoro-ethyl)-[2-trifluoromethyl-8-(2,4,6-trimethyl-phenyl)-8H-1,3a,8-triaza-cyclopenta[α]inden-3-ylmethyl]-amine] |
| > 6.00 | CCCCN(CC)Cc1c(C(F)(F)F)nc2n(-c3c(C)cc(C)cc3C)c3ccccc3n12 [Example 170, Butyl-ethyl-[2-trifluoromethyl-8-(2,4,6-trimethyl-phenyl)-8H-1,3a,8-triaza-cyclopenta[α]inden-3-ylmethyl]-amine] |
| > 6.00 | Cc1cc(C)c(-n2c3ccccc3n3c(CN(CCc4ccccc4)CC(F)(F)F)c(C(F)(F)F)nc23)c(C)c1 [Example 171, Phenethyl-(2,2,2-trifluoro-ethyl)-[2-trifluoromethyl-8-(2,4,6-trimethyl-phenyl)-8H-1,3a,8-triaza-cyclopenta[α]inden-3-ylmethyl]-amine] |
| > 5.00 | CCN(CCC1CC1)Cc1c(C(F)(F)F)nc2n(-c3c(C)cc(C)cc3C)c3ccccc3n12 [Example 172, (2-Cyclopropyl-ethyl)-ethyl-[2-trifluoromethyl-8-(2,4,6-trimethyl-phenyl)-8H-1,3a,8-triaza-cyclopenta[α]inden-3-ylmethyl]-amine] |
| > 5.00 | CCCN(Cc1ccccc1)Cc1c(C(F)(F)F)nc2n(-c3c(C)cc(C)cc3C)c3ccccc3n12 [Example 175, Benzyl-propyl-[2-trifluoromethyl-8-(2,4,6-trimethyl-phenyl)-8H-1,3a,8-triaza-cyclopenta[α]inden-3-ylmethyl]-amine] |
| > 5.00 | FC(F)(F)CN(Cc1c(C(F)(F)F)nc2n(-c3ccc(Cl)cc3Cl)c3ccccc3n12)CC1CCC1 [Example 185, Cyclobutylmethyl-[8-(2,4-dichloro-phenyl)-2-trifluoromethyl-8H-1,3a,8-triaza-cyclopenta[α]inden-3-ylmethyl]-(2,2,2-trifluoro-ethyl)-amine] |
| > 6.00 | CC(C)c1ccc(-n2c3ccccc3n3c(CN(CCC(F)(F)F)CC4CC4)c(C(F)(F)F)nc23)c(Br)c1 [Example 189, [8-(2-Bromo-4-isopropyl-phenyl)-2-trifluoromethyl-8H-1,3a,8-triaza-cyclopenta[α]inden-3-ylmethyl]-cyclopropylmethyl-(3,3,3-trifluoro-propyl)-amine] |
